Patent US20210283163A1, “COMPOSITIONS AND METHODS FOR THE TREATMENT OF ACUTE AND CHRONIC PRURITIS” (Duke University, priority 2018, published 2021)

Legend:
TRPV3 = target: T1, TRPV3 (Mus musculus, UniProt Q8K424); assay: Whole-cell patch clamp in CHO cells transfected with mouse Trpv3 cDNA; assay type: cell-based; conditions: miR-711 10 μM; carvacrol 300 μM
T1 construct: expressed in transfected cells; host or cells: CHO cells (ATCC CRL-9096), plasmid pcDNA3.1-mTrpv3, a gift from Korea University
T1 sequence (Q8K424 1-791): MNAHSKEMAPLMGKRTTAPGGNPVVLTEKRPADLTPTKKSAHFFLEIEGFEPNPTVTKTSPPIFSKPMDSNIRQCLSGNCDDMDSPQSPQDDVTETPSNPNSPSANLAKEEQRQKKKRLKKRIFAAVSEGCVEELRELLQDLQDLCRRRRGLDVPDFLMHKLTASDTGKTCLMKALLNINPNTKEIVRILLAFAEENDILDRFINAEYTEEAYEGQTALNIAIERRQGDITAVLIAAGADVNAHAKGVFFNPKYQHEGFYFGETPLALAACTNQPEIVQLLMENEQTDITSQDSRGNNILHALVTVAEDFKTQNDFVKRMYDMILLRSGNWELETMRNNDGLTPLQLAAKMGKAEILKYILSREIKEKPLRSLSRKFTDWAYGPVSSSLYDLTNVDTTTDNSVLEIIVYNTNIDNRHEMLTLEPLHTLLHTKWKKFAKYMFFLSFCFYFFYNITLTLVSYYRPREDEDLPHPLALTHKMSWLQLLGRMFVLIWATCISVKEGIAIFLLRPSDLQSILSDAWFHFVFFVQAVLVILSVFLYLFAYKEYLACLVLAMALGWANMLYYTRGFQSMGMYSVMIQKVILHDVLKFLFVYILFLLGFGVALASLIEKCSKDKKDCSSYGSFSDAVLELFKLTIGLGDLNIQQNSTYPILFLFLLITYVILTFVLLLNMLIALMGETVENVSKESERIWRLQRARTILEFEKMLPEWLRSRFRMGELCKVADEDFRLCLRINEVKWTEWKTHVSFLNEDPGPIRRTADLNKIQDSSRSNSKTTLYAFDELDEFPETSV
Description: Constructs. The cDNAs of mouse pcDNA3.1-Trpa1, pcDNA3.1-Trpv1, pcDNA3.1-Trpv2, pcDNA3.1-Trpv3, and pcDNA3.1-Trpv4 were kindly provided Dr. Sun Work Hwang from Korea University. Mouse Trpa1 cDNA was subcloned into pCGN-HA backbone (Addgene) using In-Fusion HD Cloning Kit (Clontech Laboratories, CA). Q5 Site-Directed Mutagenesis Kit was used to generate mTrpa1 mutant (M1-M13) based on pCGN-mTrpa1.
Cell Culture and Transfection. CD4^+ Myla cell line was cultured in RPMI 1640 media (GIBCO), supplemented with 2 mM Glutamine (GIBCO), 100 U/mL IL-2 (Sigma), 100 U/mL IL-4 (Sigma), and 10% human AB serum (Sigma). HuT 102 cell line was cultured in RPMI 1640 supplemented with pyruvate, HEPES, and 10% (v/v) fetal bovine serum (HyClone). HEK293-hTRPA1 stable cell line was cultured in MEM (GIBCO) containing 2 mM Glutamine, 4 μg/mL Blasticidin, 10% FBS (v/v). B16 and CHO cells were cultured in high glucose (4.5 g/L) Dulbecco's Modified Eagle's Medium (GIBCO) containing 10% (v/v) fetal bovine serum (GIBCO). Culture media were supplemented with 50 units/mL of penicillin and 50 μg/mL streptomycin, and cultures were maintained with 5% CO2 in 37° C. incubator. Transfection (2 μg cDNA) was performed with Lipofectamine™ 2000 Reagent (Invitrogen) at 80% confluency and the transfected cells were cultured in the same media for 48 hr before electrophysiological and biochemical studies. […]

mTRPA1 = target: T2, mTRPA1 (Mus musculus, UniProt Q8BLA8); assay: Live cell labeling with Cy3-labeled oligos in cultured DRG neurons; assay type: binding; conditions: 10 μM Cy3-labeled oligo, 15 min
T2 construct: endogenous in cells; host or cells: dissociated mouse DRG neurons in primary culture
T2 sequence (Q8BLA8 whole entry): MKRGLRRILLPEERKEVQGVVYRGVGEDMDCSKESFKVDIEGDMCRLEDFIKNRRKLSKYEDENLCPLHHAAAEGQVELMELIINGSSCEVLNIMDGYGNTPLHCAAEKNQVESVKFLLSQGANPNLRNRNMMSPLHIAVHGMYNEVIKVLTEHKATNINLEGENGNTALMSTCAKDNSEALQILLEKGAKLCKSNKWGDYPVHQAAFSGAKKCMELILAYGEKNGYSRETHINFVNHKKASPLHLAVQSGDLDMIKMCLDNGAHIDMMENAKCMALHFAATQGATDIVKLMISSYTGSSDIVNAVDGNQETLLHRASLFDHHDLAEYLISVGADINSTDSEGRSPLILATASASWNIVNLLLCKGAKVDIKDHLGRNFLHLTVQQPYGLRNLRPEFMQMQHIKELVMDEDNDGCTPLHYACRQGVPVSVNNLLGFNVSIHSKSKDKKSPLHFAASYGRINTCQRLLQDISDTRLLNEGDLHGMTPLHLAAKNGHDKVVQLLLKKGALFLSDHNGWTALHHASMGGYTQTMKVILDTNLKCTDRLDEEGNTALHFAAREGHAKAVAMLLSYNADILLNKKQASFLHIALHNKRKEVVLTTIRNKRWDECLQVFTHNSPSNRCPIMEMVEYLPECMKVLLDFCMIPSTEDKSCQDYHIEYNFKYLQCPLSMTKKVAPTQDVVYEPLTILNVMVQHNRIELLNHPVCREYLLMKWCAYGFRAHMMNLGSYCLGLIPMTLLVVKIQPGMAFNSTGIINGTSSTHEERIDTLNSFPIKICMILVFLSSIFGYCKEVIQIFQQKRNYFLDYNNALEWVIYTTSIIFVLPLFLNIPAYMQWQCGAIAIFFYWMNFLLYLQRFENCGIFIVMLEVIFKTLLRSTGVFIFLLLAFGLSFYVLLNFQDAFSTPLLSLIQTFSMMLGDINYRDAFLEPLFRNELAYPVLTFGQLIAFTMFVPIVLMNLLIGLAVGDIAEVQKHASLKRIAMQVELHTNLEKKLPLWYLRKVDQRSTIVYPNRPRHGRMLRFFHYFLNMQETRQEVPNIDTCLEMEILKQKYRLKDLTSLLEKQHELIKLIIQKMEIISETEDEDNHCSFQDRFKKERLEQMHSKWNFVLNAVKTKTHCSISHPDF
Description: Live Cell Labeling and Immunocytochemistry in Mouse DRG Neurons. Disassociated DRG neurons were plated on Poly-D-Lysine coated coverslips and cultured in Neurobasal medium supplemented with B27 for 24 hr. Cells were incubated with 10 μM Cy3-labeled miR-711 or miR-711 (m6) in extracellular cell solution for 15 min at 37° C. with 5% CO2. Then the coverslips were washed and incubated with TRPA1 primary antibody (Alomone lab, rabbit, 1:100) at 4° C. for 1 hr. The cells on coverslips were incubated with secondary antibody conjugated to FITC (1:100; Jackson ImmunoResearch, West Grove, Pa.) and examined under a Leica SP5 inverted confocal microscope.

Q: `Cc1ccc(C(C)C)cc1O` [carvacrol] was tested. Which inward currents (TRPV3) did it give?
A: inward currents induced

Q: Which “binding to TRPA1 on the cell surface of DRG neurons” value (mTRPA1) does the source give for “Cy3-labeled miR-711: mmu-miR-711-cy3: gggacccggggagagauguaag-cy3 (SEQ ID NO: 20) (GGGACCCGGGGAGAGAUGUAAG; Cy3 label at 3' end, RNA chemistry otherwise not given here, further chemistry not given here)” here?
A: binds to TRPA1 on the cell surface
